From patent US20130137644A1, “CELL PENETRATING PEPTIDE CONJUGATES FOR DELIVERING OF NUCLEIC ACIDS INTO A CELL” (priority 2005, published 2013)

Test: Body weight evolution, apparent toxicity during the efficacy experiment
Format: in vivo, NMRI nude mice
Settings: 48.15 μmol/kg i.v. Q1D5; course of experiment 80 days
Procedure: Animal experiments were performed according to ethical guidelines of animal experimentation. The day of the first injection (6 days after the graft), mice were randomized in 7 groups. Mice were treated by intravenous injection in the lateral tail vein at a constant volume of 10 microL/g. Groups were as follows:
During the course of experiment body weight and tumor size were controlled every 2 or 3 days (except weekends). […] Mortality of animals was recorded every day except the weekend.
During the efficacy experiment, body weight was monitored twice weekly. Treatment toxicity was assessed based on clinical signs and body weight evolution.

CCc1c2c(nc3ccc(OC(=O)N4CCC(N5CCCCC5)CC4)cc13)-c1cc3c(c(=O)n1C2)COC(=O)[C@]3(O)CC [irinotecan, Irinotecan]
body weight loss: ~20%
